The results in this text go back to patent US20260347347A1, “2-AZA-AND 2-OXABICYCLO[2.1.1]HEXANE DERIVATIVES AS FACTOR XIIA ENZYME INHIBITORS” (KALVISTA PHARMACEUTICALS LIMITED, priority 2022, published 2026).

The target in this experiment is T1, Human Factor XIIa (Homo sapiens, UniProt P00748).
T1 construct: purchased Enzyme Research Laboratories
T1 sequence (P00748 373-615 limits assumed): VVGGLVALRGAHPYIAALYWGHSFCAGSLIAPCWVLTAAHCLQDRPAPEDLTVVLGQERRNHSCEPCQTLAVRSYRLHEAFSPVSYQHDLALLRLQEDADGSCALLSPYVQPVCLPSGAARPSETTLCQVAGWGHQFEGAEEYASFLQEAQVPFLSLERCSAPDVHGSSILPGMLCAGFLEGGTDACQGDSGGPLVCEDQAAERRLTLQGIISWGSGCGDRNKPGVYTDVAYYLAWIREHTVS
T1 sequence (P00748 20-372 partner limits assumed): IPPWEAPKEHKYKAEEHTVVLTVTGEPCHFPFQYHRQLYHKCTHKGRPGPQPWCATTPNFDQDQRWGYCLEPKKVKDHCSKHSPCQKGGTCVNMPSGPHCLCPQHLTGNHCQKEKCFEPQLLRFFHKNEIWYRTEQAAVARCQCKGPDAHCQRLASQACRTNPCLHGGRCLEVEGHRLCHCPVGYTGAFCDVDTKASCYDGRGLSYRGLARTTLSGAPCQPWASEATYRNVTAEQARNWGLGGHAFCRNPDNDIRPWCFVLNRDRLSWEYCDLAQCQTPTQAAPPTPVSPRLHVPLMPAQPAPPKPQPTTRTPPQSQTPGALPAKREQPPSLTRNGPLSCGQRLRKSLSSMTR
The experiment in a line: Determination of FXIIa inhibition (in vitro IC50 assay, fluorogenic substrate H-DPro-Phe-Arg-AFC). Particulars: human Factor XIIa; fluorogenic substrate H-DPro-Phe-Arg-AFC at Km concentration; 5 min, 25 °C; class symbols; read-out: Human FXIIa IC50. Format: biochemical. Summed up:
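Human FXIIa incubated at 25 °C with compound and H-DPro-Phe-Arg-AFC at its Km concentration. Linear fluorescence increase monitored over 5 min, expressed as % of uninhibited activity; IC50 is concentration giving 50% inhibition.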
Take `Cn1ccc(OCC23CN(C(=O)NCC4CCOCC4)C(CNc4cccc5c(N)nccc45)(C2)C3)cc1=O` [Example 77, 1-(((1-aminoisoquinolin-5-yl)amino)methyl)-4-(((1-methyl-2-oxo-1,2-dihydropyridin-4-yl)oxy)methyl)-N-((tetrahydro-2H-pyran-4-yl)methyl)-2-azabicyclo[2.1.1]hexane-2-carboxamide]: the IC50 lay in the range of 10 to 100 nM. For `Cn1ccc(OCC23CN(C(=O)NC4(C)CCOCC4)C(CNc4cccc5c(N)nccc45)(C2)C3)cc1=O` [Example 78, 1-(((1-aminoisoquinolin-5-yl)amino)methyl)-4-(((1-methyl-2-oxo-1,2-dihydropyridin-4-yl)oxy)methyl)-N-(4-methyltetrahydro-2H-pyran-4-yl)-2-azabicyclo[2.1.1]hexane-2-carboxamide] the value was 10 to 100 nM; for `Cn1ccc(OCC23CN(C(=O)NC4(C)COC4)C(CNc4cccc5c(N)nccc45)(C2)C3)cc1=O` [Example 79, 1-(((1-aminoisoquinolin-5-yl)amino)methyl)-4-(((1-methyl-2-oxo-1,2-dihydropyridin-4-yl)oxy)methyl)-N-(3-methyloxetan-3-yl)-2-azabicyclo[2.1.1]hexane-2-carboxamide], 10 to 100 nM. Turning to `Cn1ccc(OCC23CN(C(=O)NC4C(C)(C)C4(C)C)C(CNc4cccc5c(N)nccc45)(C2)C3)cc1=O` [Example 80, 1-(((1-aminoisoquinolin-5-yl)amino)methyl)-4-(((1-methyl-2-oxo-1,2-dihydropyridin-4-yl)oxy)methyl)-N-(2,2,3,3-tetramethylcyclopropyl)-2-azabicyclo [2.1.1]hexane-2-carboxamide], the IC50 lay in the range of 10 to 100 nM. For `Cn1ccc(OCC23CN(C(=O)NCCC4CCC4)C(CNc4cccc5c(N)nccc45)(C2)C3)cc1=O` [Example 81, 1-(((1-aminoisoquinolin-5-yl)amino)methyl)-N-(2-cyclobutylethyl)-4-(((1-methyl-2-oxo-1,2-dihydropyridin-4-yl)oxy)methyl)-2-azabicyclo[2.1.1]hexane-2-carboxamide] the value was 10 to 100 nM. `Cn1ccc(OCC23CN(C(=O)NCCCOCc4ccccc4)C(CNc4cccc5c(N)nccc45)(C2)C3)cc1=O` [Example 82, 1-(((1-aminoisoquinolin-5-yl)amino)methyl)-N-(3-(benzyloxy)propyl)-4-(((1-methyl-2-oxo-1,2-dihydropyridin-4-yl)oxy)methyl)-2-azabicyclo[2.1.1]hexane-2-carboxamide]: the concentration for half-maximal inhibition (IC50) is 10 to 100 nM.

Consider `Cc1cc(OCC23CN(C(=O)N4CCC5(CCOCC5)C4)C(CNc4cccc5c(N)nccc45)(C2)C3)cc(=O)n1C` [Example 83, 4-((1-(((1-aminoisoquinolin-5-yl)amino)methyl)-2-(8-oxa-2-azaspiro[4.5]decane-2-carbonyl)-2-azabicyclo[2.1.1]hexan-4-yl)methoxy)-1,6-dimethylpyridin-2(1H)-one], for which the IC50 lay within 10 to 100 nM. To `Cc1cc(OCC23CN(C(=O)N4CCCC5(CC5)C4)C(CNc4cccc5c(N)nccc45)(C2)C3)cc(=O)n1C` [Example 84, 4-((1-(((1-aminoisoquinolin-5-yl)amino)methyl)-2-(5-azaspiro[2.5]octane-5-carbonyl)-2-azabicyclo[2.1.1]hexan-4-yl)methoxy)-1,6-dimethylpyridin-2(1H)-one] belongs 10 to 100 nM; to `Cc1cc(OCC23CN(C(=O)N4CCC5(CCCC5)C4)C(CNc4cccc5c(N)nccc45)(C2)C3)cc(=O)n1C` [Example 85, 4-((1-(((1-aminoisoquinolin-5-yl)amino)methyl)-2-(2-azaspiro[4.4]nonane-2-carbonyl)-2-azabicyclo[2.1.1]hexan-4-yl)methoxy)-1,6-dimethylpyridin-2(1H)-one], 10 to 100 nM. To `COc1cccc(C2CCN(C(=O)N3CC4(COc5cc(C)n(C)c(=O)c5)CC3(CNc3cccc5c(N)nccc35)C4)C2)c1` (stereo not shown) [Example 86, 4-((1-(((1-aminoisoquinolin-5-yl)amino)methyl)-2-(3-(3-methoxyphenyl)pyrrolidine-1-carbonyl)-2-azabicyclo[2.1.1]hexan-4-yl)methoxy)-1,6-dimethylpyridin-2(1H)-one] belongs 10 to 100 nM; to `Cc1cc(OCC23CN(C(=O)N4CCCC5(C4)CC5(F)F)C(CNc4cccc5c(N)nccc45)(C2)C3)cc(=O)n1C` (stereo not shown) [Example 87, 4-((1-(((1-aminoisoquinolin-5-yl)amino)methyl)-2-(1,1-difluoro-5-azaspiro[2.5]octane-5-carbonyl)-2-azabicyclo[2.1.1]hexan-4-yl)methoxy)-1,6-dimethylpyridin-2(1H)-one], 10 to 100 nM; to `Cn1ccc(OCC23CN(C(=O)N[C@@H](c4ccccc4)C(F)(F)F)C(CNc4cccc5c(N)nccc45)(C2)C3)cc1=O` [Example 88, (S)-1-(((1-aminoisoquinolin-5-yl)amino)methyl)-4-(((1-methyl-2-oxo-1,2-dihydropyridin-4-yl)oxy)methyl)-N-(2,2,2-trifluoro-1-phenylethyl)-2-azabicyclo [2.1.1]hexane-2-carboxamide], 10 to 100 nM. For `Cc1cc(OCC23CN(C(=O)N4CCC5(C4)CC5(F)F)C(CNc4cccc5c(N)nccc45)(C2)C3)cc(=O)n1C` (stereo not shown) [Example 89, 4-((1-(((1-aminoisoquinolin-5-yl)amino)methyl)-2-(1,1-difluoro-5-azaspiro[2.4]heptane-5-carbonyl)-2-azabicyclo[2.1.1]hexan-4-yl)methoxy)-1,6-dimethylpyridin-2(1H)-one] the value was 10 to 100 nM; for `Cc1cc(OCC23CN(C(=O)N(C)C4COc5ccccc54)C(CNc4cccc5c(N)nccc45)(C2)C3)cc(=O)n1C` (stereo not shown) [Example 90, 1-(((1-Aminoisoquinolin-5-yl)amino)methyl)-N-(2,3-dihydrobenzofuran-3-yl)-4-(((1,6-dimethyl-2-oxo-1,2-dihydropyridin-4-yl)oxy)methyl)-N-methyl-2-azabicyclo[2.1.1]hexane-2-carboxamide], 1 to 10 nM; for `Cn1ccc(OCC23CN(C(=S)Nc4ccccc4)C(CNc4cccc5c(N)nccc45)(C2)C3)cc1=O` [Example 91, 1-(((1-Aminoisoquinolin-5-yl)amino)methyl)-4-(((1-methyl-2-oxo-1,2-dihydropyridin-4-yl)oxy)methyl)-N-phenyl-2-azabicyclo[2.1.1]hexane-2-carbothioamide], 10 to 100 nM. As for `Cc1cc(OCC23CN(C(=O)Nc4ccc5c(c4)OC(F)(F)O5)C(CNc4cccc5c(N)nccc45)(C2)C3)cc(=O)n1C` [Example 92, 1-(((1-aminoisoquinolin-5-yl)amino)methyl)-N-(2,2-difluorobenzo[d][1,3]dioxol-5-yl)-4-(((1,6-dimethyl-2-oxo-1,2-dihydropyridin-4-yl)oxy)methyl)-2-azabicyclo[2.1.1]hexane-2-carboxamide], the IC50 was 10 to 100 nM. To `Cn1ccc(OCC23CN(c4ncc(C5CC5)cn4)C(CNc4cccc5c(N)nccc45)(C2)C3)cc1=O` [Example 93, 4-((1-(((1-aminoisoquinolin-5-yl)amino)methyl)-2-(5-cyclopropylpyrimidin-2-yl)-2-azabicyclo[2.1.1]hexan-4-yl)methoxy)-1-methylpyridin-2(1H)-one] belongs 10 to 100 nM. To `Cc1cc(OCC23CN(c4ccc(C5CC5)nc4)C(CNc4cccc5c(N)nccc45)(C2)C3)cc(=O)n1C` [Example 94, 4-((1-(((1-aminoisoquinolin-5-yl)amino)methyl)-2-(6-cyclopropylpyridin-3-yl)-2-azabicyclo[2.1.1]hexan-4-yl)methoxy)-1,6-dimethylpyridin-2(1H)-one] belongs 10 to 100 nM; to `Cc1cc(OCC23CN(c4ccc(C5CC5)nn4)C(CNc4cccc5c(N)nccc45)(C2)C3)cc(=O)n1C` [Example 95, 4-((1-(((1-Aminoisoquinolin-5-yl)amino)methyl)-2-(6-cyclopropylpyridazin-3-yl)-2-azabicyclo[2.1.1]hexan-4-yl)methoxy)-1,6-dimethylpyridin-2(1H)-one], 10 to 100 nM. For `Cc1cc(OCC23CN(C4=NCCO4)C(CNc4cccc5c(N)nccc45)(C2)C3)cc(=O)n1C` [Example 97, 4-((1-(((1-Aminoisoquinolin-5-yl)amino)methyl)-2-(4,5-dihydrooxazol-2-yl)-2-azabicyclo[2.1.1]hexan-4-yl)methoxy)-1,6-dimethylpyridin-2(1H)-one] the value was 10 to 100 nM; for `Cn1ccc(OCC23CC(CNc4cccc5c(N)nccc45)(CN2C(=O)CCC2CCCCC2)C3)cc1=O` [Example 102, 4-((4-(((1-Aminoisoquinolin-5-yl)amino)methyl)-2-(3-cyclohexylpropanoyl)-2-azabicyclo[2.1.1]hexan-1-yl)methoxy)-1-methylpyridin-2(1H)-one], 100 to 300 nM. Regarding `Cn1ccc(OCC23CC(CNc4cccc5c(N)nccc45)(CN2C(=O)CC2CCCCC2)C3)cc1=O` [Example 103, 4-((4-(((1-aminoisoquinolin-5-yl)amino)methyl)-2-(2-cyclohexylacetyl)-2-azabicyclo[2.1.1]hexan-1-yl)methoxy)-1-methylpyridin-2(1H)-one], the IC50 was 300 to 1000 nM.
